The results in this text go back to article PMC5666514 (Chemical Science, 2015).

What is called IC50 is the point on the concentration scale where inhibition reaches its midpoint.

Read-outs that look alike come from different tables or passages of the source. *1 amine or outer side, *2 acyl side, *3 side chain or, on linkers, in order; H or OH if unused. Where a SMILES comes first, the peptide text is derived from it. Bridges are numbered along the chain shown (N, C = ends). Roman numbers before positions name the chains, in order. [ ]: non-standard residue; d: D form. The star is where a group is joined. 5FAM = O=C1OC2(c3ccc(O)cc3Oc3cc(O)ccc32)c2ccc(C(=O)*)cc21; Quinoxaline2carbonyl = O=C(c1cnc2ccccc2n1)*; Ethylenediamine = C(CN[*:2])N[*:1]; NMeV = CN[C@H](C(=O)O)C(C)C; NMeAbu = CC[C@H](NC)C(=O)O; NMeC = CN[C@@H](CS)C(=O)O; Abu = CC[C@H](N)C(=O)O; Dap = NC[C@H](N)C(=O)O

In assay [1] the test system is A-549 lung carcinoma cells. Kind of assay: cells. The format is cell-based, human. Here is the method:
(§1) The twelve synthesized compounds were evaluated in vitro using the following four human cancer cell lines: cervical adenocarcinoma (HeLa), lung carcinoma (A-549), breast adenocarcinoma (SK-BR-3) and colon adenocarcinoma (HT-29). Cells were treated for 24 h with various concentrations of the compounds, and their cytotoxic activity was then assessed using the [3-(4,5-dimethylthiazol-2-yl)-2,5-diphenyltetrazolium] bromide (MTT) assay.[29] Analysis of the dose-response data obtained yielded IC50 (50% inhibitory concentration) values, which are detailed in Table 1.
(§2) Normally growing cells were plated at 5 × 10^3 cells per well into 96-well plates and incubated for 24 h at 37 °C to allow attachment to the surface. Samples were then added dissolved in a DMSO–PBS vehicle (less than 1% in culture medium) at a range of concentrations. Drugs were run in triplicate or greater and control wells contained appropriate percentages of vehicle. After 24 h of exposure, the antitumor effect was measured using a solution of MTT, which is bioreduced by viable cells into formazan. The formed crystals were solubilized using DMSO and the amount of formazan was measured by reading the absorbance at 570 nm. The absorbance of wells containing only the MTT reagent (the plate blank) was subtracted from all wells.
(§3) The IC50 values were determined by dose response curve analysis and statistical analysis using GraphPad Prism software version 5.0a. […]
(§4) mM L-glutamine and antibiotics.
(§5) in a humidified atmosphere containing 5% CO2. For sub-culturing, cells were detached from
(§6) 5 mL of fresh medium preheated at 37 °C. Cellular density was determined in a Neubauer

Assay [2] concerns HT-29 colon adenocarcinoma cells. Kind of assay: cells. The format is cell-based, human. Here is the method:
as §1, §2, §3, §4, §5, §6

The test system of assay [3] is HeLa cervical adenocarcinoma cells. Briefly: cells. The assay is classed as cell-based, human. Here is the method:
as §1, §2, §3, §4, §5, §6

Assay [4] deals with SK-BR-3 breast adenocarcinoma cells. Briefly: cells. The format is cell-based, human. Here is the method: as §1, §2, §3, §4, §5, §6
The subject of assay [5] is DNA (footprinting substrates MS1 and HexA). Briefly: DNase I footprinting. The assay is classed as binding. Conditions: MS1 and HexA fragments; RZ compounds up to 500 μM (RZ2 up to 1 mM).
Source text: compounds are 500 M and 100 M; the concentrations for echinomycin are 10 M and 5 M.
Where [6] appears, read: MTT assay, 24 h exposure, run in triplicate or greater, read-out: IC50, Lung A-549.
Where [7] appears, read: MTT assay, 24 h exposure, run in triplicate or greater, read-out: IC50, Colon HT-29.
Setting [8] is: MTT assay, 24 h exposure, run in triplicate or greater, read-out: IC50, Cervix HeLa.
[9] abbreviates: MTT assay, 24 h exposure, run in triplicate or greater, read-out: IC50, Breast SK-BR-3.

Take `COc1cccc2c1C(=O)c1c(O)c3c(c(O)c1C2=O)C[C@@](O)(C(=O)CO)C[C@@H]3O[C@H]1C[C@H](N)[C@H](O)[C@H](C)O1` [Doxorubicin, reference compound]: the 50% inhibitory concentration (IC50) in assay [1] (Homo sapiens, A549, MTT assay, 24 h exposure, run in triplicate or greater, read-out: IC50, Lung A-549) came to 0.6 µM; in assay [2] (Homo sapiens, HT-29, MTT assay, 24 h exposure, run in triplicate or greater, read-out: IC50, Colon HT-29), 8.9 µM; in assay [3] (Homo sapiens, HeLa, MTT assay, 24 h exposure, run in triplicate or greater, read-out: IC50, Cervix HeLa), 5.4 µM; in assay [4] (Homo sapiens, SK-BR-3, MTT assay, 24 h exposure, run in triplicate or greater, read-out: IC50, Breast SK-BR-3) it was 0.5 µM.
For `CC[C@H](C)[C@H](NC(=O)CNC(=O)[C@H]1CCCN1C(=O)[C@@H](NC(=O)[C@H](C(C)C)N(C)C(=O)[C@H](CC)N(C)C(=O)[C@H](CO)NC(=O)c1cnc2ccccc2n1)[C@@H](C)CC)C(=O)N(C)[C@H](C(=O)N(C)[C@@H](CC)C(=O)NCCNC(=O)c1cnc2ccccc2n1)C(C)C` [RZ9] (Quinoxaline2carbonyl-S[NMeAbu][NMeV]I[dP]GI[NMeV][NMeAbu]-{Ethylenediamine-Quinoxaline2carbonyl}), the IC50 in assay [1] (24 h) was found to be 60.9 µM; in assay [2] (24 h) it was 84.4 µM; in assay [3] (24 h) it was 50.9 µM; in assay [4] (24 h) it was 90.6 µM.
Taken in the same sequence, the figures for `CC[C@H](NC(=O)[C@H](CO)NC(=O)c1cnc2ccccc2n1)C(=O)N[C@H](C(=O)N[C@H](C(=O)N1CCC[C@@H]1C(=O)NCC(=O)N[C@H](C(=O)N[C@H](C(=O)N[C@@H](CC)C(=O)NCCNC(=O)c1cnc2ccccc2n1)C(C)C)[C@@H](C)O)[C@@H](C)O)C(C)C` [RZ6] (Quinoxaline2carbonyl-S[Abu]VT[dP]GTV[Abu]-{Ethylenediamine-Quinoxaline2carbonyl}) were 84.5 µM, 83.1 µM, 45.6 µM and 55.3 µM.
Turning to `CC(C)[C@H]1C(=O)OC[C@@H](NC(=O)c2cnc3ccccc3n2)C(=O)N[C@@H](C)C(=O)N(C)[C@H]2CSSC[C@@H](C(=O)N1C)N(C)C(=O)[C@H](C)NC(=O)[C@H](NC(=O)c1cnc3ccccc3n1)COC(=O)[C@H](C(C)C)N(C)C2=O` [Triostin A, reference compound] (I: Quinoxaline2carbonyl-[dS]A[NMeC][NMeV] / II: Quinoxaline2carbonyl-[dS]A[NMeC][NMeV]; ester I:1-II:C, I:C-II:1; disulfide I:3-II:3), the IC50 in assay [1] (setting [6]) is 23.5 µM; in assay [2] (setting [7]), 24.7 µM; in assay [3] (setting [8]), 18.8 µM; in assay [4] (setting [9]) it was 23.1 µM.
Regarding `CC[C@H](NC(=O)[C@H](CNC(=O)c1ccc2c(c1)C(=O)OC21c2ccc(O)cc2Oc2cc(O)ccc21)NC(=O)c1cnc2ccccc2n1)C(=O)N[C@H](C(=O)N[C@H](C(=O)N1CCC[C@@H]1C(=O)NCC(=O)N[C@H](C(=O)N[C@H](C(=O)N[C@@H](CC)C(=O)NCCNC(=O)c1cnc2ccccc2n1)C(C)C)C(C)C)C(C)C)C(C)C` [RZ2CF] (Quinoxaline2carbonyl-[Dap](5FAM)[Abu]VV[dP]GVV[Abu]-{Ethylenediamine-Quinoxaline2carbonyl}), in assay [3] (setting [8]), the IC50 came to 16.7 µM.
As for `CC[C@H](NC(=O)[C@@H](NC(=O)[C@@H](NC(=O)CNC(=O)[C@H]1CCCN1C(=O)[C@@H](NC(=O)[C@@H](NC(=O)[C@H](CC)NC(=O)[C@@H](CO)NC(=O)c1cnc2ccccc2n1)C(C)C)C(C)C)C(C)C)C(C)C)C(=O)NCCNC(=O)c1cnc2ccccc2n1` [RZ4] (Quinoxaline2carbonyl-[dS][Abu]VV[dP]GVV[Abu]-{Ethylenediamine-Quinoxaline2carbonyl}), the IC50 in assay [1] (setting [6]) was 34.9 µM; in assay [2] (setting [7]) it was 75 µM; in assay [3] (setting [8]), 30.9 µM; in assay [4] (setting [9]), over 100 µM.
`CC[C@H](NC(=O)[C@@H](NC(=O)[C@@H](NC(=O)CNC(=O)[C@H]1CCCN1C(=O)[C@@H](NC(=O)[C@@H](NC(=O)[C@H](CC)NC(=O)[C@@H](CO)NC(=O)c1cnc2ccccc2n1)C(C)C)[C@@H](C)O)[C@@H](C)O)C(C)C)C(=O)NCCNC(=O)c1cnc2ccccc2n1` [RZ8] (Quinoxaline2carbonyl-[dS][Abu]VT[dP]GTV[Abu]-{Ethylenediamine-Quinoxaline2carbonyl}): the IC50 in assay [1] (24 h) came out at 23.4 µM; in assay [2] (24 h), 39.8 µM; in assay [3] (24 h), 37.1 µM; in assay [4] (24 h), 44.5 µM.
The like results for `CC[C@H](NC(=O)[C@@H](NC(=O)[C@@H](NC(=O)CNC(=O)[C@H]1CCCN1C(=O)[C@@H](NC(=O)[C@@H](NC(=O)[C@H](CC)NC(=O)[C@@H](CO)NC(=O)c1cnc2ccccc2n1)C(C)C)[C@@H](C)CC)[C@@H](C)CC)C(C)C)C(=O)NCCNC(=O)c1cnc2ccccc2n1` [RZ12] (Quinoxaline2carbonyl-[dS][Abu]VI[dP]GIV[Abu]-{Ethylenediamine-Quinoxaline2carbonyl}) were, in that order, 82.2 µM, over 100 µM, 55.4 µM and 71.6 µM.
As for echinomycin, the “DNase I footprint (DNA binding)” value in assay [5] is reported as “Clear footprints”.
Regarding `CC[C@@H](C(=O)N(C)[C@H](C(=O)N[C@H](C(=O)N1CCC[C@@H]1C(=O)NCC(=O)N[C@H](C(=O)N(C)[C@H](C(=O)N(C)[C@@H](CC)C(=O)NCCNC(=O)c1cnc2ccccc2n1)C(C)C)[C@@H](C)O)[C@@H](C)O)C(C)C)N(C)C(=O)[C@H](CO)NC(=O)c1cnc2ccccc2n1` [RZ5] (Quinoxaline2carbonyl-S[NMeAbu][NMeV]T[dP]GT[NMeV][NMeAbu]-{Ethylenediamine-Quinoxaline2carbonyl}), the IC50 in assay [1] (24 h) is 70.7 µM; in assay [2] (24 h) it was 84.8 µM; in assay [3] (24 h), over 100 µM; in assay [4] (24 h) it was 84.6 µM.
The like results for `CC[C@@H](C(=O)NCCNC(=O)c1cnc2ccccc2n1)N(C)C(=O)[C@H](C(C)C)N(C)C(=O)[C@@H](NC(=O)CNC(=O)[C@H]1CCCN1C(=O)[C@@H](NC(=O)[C@H](C(C)C)N(C)C(=O)[C@H](CC)N(C)C(=O)[C@@H](CO)NC(=O)c1cnc2ccccc2n1)C(C)C)C(C)C` [RZ3] (Quinoxaline2carbonyl-[dS][NMeAbu][NMeV]V[dP]GV[NMeV][NMeAbu]-{Ethylenediamine-Quinoxaline2carbonyl}) were, in that order, 65.8 µM, 72.3 µM, 93.8 µM and 98.1 µM.
Consider `CC[C@@H](C(=O)N(C)[C@H](C(=O)N[C@H](C(=O)N1CCC[C@@H]1C(=O)NCC(=O)N[C@H](C(=O)N(C)[C@H](C(=O)N(C)[C@@H](CC)C(=O)NCCNC(=O)c1cnc2ccccc2n1)C(C)C)C(C)C)C(C)C)C(C)C)N(C)C(=O)[C@H](CO)NC(=O)c1cnc2ccccc2n1` [RZ1] (Quinoxaline2carbonyl-S[NMeAbu][NMeV]V[dP]GV[NMeV][NMeAbu]-{Ethylenediamine-Quinoxaline2carbonyl}), for which the IC50 in assay [1] (24 h) was 51.2 µM; in assay [2] (24 h), 88.4 µM; in assay [3] (24 h), 42.2 µM; in assay [4] (24 h), 96.7 µM.
Taken in the same sequence, the figures for `CC[C@H](NC(=O)[C@H](CO)NC(=O)c1cnc2ccccc2n1)C(=O)N[C@H](C(=O)N[C@H](C(=O)N1CCC[C@@H]1C(=O)NCC(=O)N[C@H](C(=O)N[C@H](C(=O)N[C@@H](CC)C(=O)NCCNC(=O)c1cnc2ccccc2n1)C(C)C)[C@@H](C)CC)[C@@H](C)CC)C(C)C` [RZ10] (Quinoxaline2carbonyl-S[Abu]VI[dP]GIV[Abu]-{Ethylenediamine-Quinoxaline2carbonyl}) were 26.8 µM, 53.8 µM, 14.1 µM and 62.1 µM.
Consider `CC[C@H](C)[C@H](NC(=O)CNC(=O)[C@H]1CCCN1C(=O)[C@@H](NC(=O)[C@H](C(C)C)N(C)C(=O)[C@H](CC)N(C)C(=O)[C@@H](CO)NC(=O)c1cnc2ccccc2n1)[C@@H](C)CC)C(=O)N(C)[C@H](C(=O)N(C)[C@@H](CC)C(=O)NCCNC(=O)c1cnc2ccccc2n1)C(C)C` [RZ11] (Quinoxaline2carbonyl-[dS][NMeAbu][NMeV]I[dP]GI[NMeV][NMeAbu]-{Ethylenediamine-Quinoxaline2carbonyl}), for which the IC50 in assay [1] (24 h) came to 96.3 µM; in assay [2] (24 h), 64.7 µM; in assay [3] (24 h), 24.3 µM; in assay [4] (24 h), 78.9 µM.
For the molecule `CC[C@@H](C(=O)NCCNC(=O)c1cnc2ccccc2n1)N(C)C(=O)[C@H](C(C)C)N(C)C(=O)[C@@H](NC(=O)CNC(=O)[C@H]1CCCN1C(=O)[C@@H](NC(=O)[C@H](C(C)C)N(C)C(=O)[C@H](CC)N(C)C(=O)[C@@H](CO)NC(=O)c1cnc2ccccc2n1)[C@@H](C)O)[C@@H](C)O` [RZ7] (Quinoxaline2carbonyl-[dS][NMeAbu][NMeV]T[dP]GT[NMeV][NMeAbu]-{Ethylenediamine-Quinoxaline2carbonyl}), the IC50 is 72.8 µM in assay [1] (24 h), 90.7 µM in assay [2] (24 h), 84.5 µM in assay [3] (24 h) and over 100 µM in assay [4] (24 h).
